From US20040173696A1, “Milling microgram quantities of nanoparticulate candidate compounds” (Elan Pharma International Ltd., priority 2002, published 2004)
Read-outs that look alike come from different tables or passages of the source.

Experiments:
[1] = 24-well, 48 hours
Experimental: In this example 0.8 mm media was used.
(§1) Naproxen and hydroxypropyllcellulose (HPC-SL) as a surface stabilizer were combined at a drug:stabilizer ratio of 4:1. Samples of the composition and grinding media, as shown in the table below, were added to the wells of a 24-well microplate One well was used for each condition. The microplate was then agitated at the maximum sustainable speed using an orbital shaking platform driven by a standard laboratory magnetic stirring device. After 48 hours the average particle size of naproxen was estimated by light microscopy.

[2] = 48-well, 0.5 g 0.8 mm media, 0.125 ml slurry, HPC-SL 4:1, 48 hours
Experimental: as §1, with “48-well microplate.” for “24-well microplate”, “hours,” for “hours”

COc1ccc2cc([C@H](C)C(=O)O)ccc2c1 [Naproxen]
<1 μm: Average Particle Size ([2]; 0.125 mg drug) | Average Particle Size ([2]; 0.625 mg drug)
<1 μm,: Average Particle Size of Naproxen ([1]; 0.25 mg drug, 1 g 0.8 mm media, 0.25 ml slurry, HPC-SL 4:1) | Average Particle Size of Naproxen ([1]; 0.5 mg drug, 2 g 0.8 mm media, 0.5 ml slurry, HPC-SL 4:1) | Average Particle Size of Naproxen ([1]; 1.25 mg drug, 1 g 0.8 mm media, 0.25 ml slurry, HPC-SL 4:1)
<0.5 μm: Average Particle Size of Naproxen ([1]; 2.5 mg drug, 1 g 0.8 mm media, 0.25 ml slurry, HPC-SL 4:1) | Average Particle Size of Naproxen ([1]; 5 mg drug, 1 g 0.8 mm media, 0.25 ml slurry, HPC-SL 4:1) | Average Particle Size of Naproxen ([1]; 10 mg drug, 2 g 0.8 mm media, 0.5 ml slurry, HPC-SL drug:stabilizer 4:1) | Average Particle Size ([2]; 1.25 mg drug) | Average Particle Size ([2]; 2.5 mg drug)
